The nature of the series: Human HepG2 cell viability assay in 384 well format. Details: dose 125 nL, time 70.5 hour; cytotoxicity at 70.5 h: concentration not given beside the values. Conditions: HepG2 cells, read-out: Inhibition. Type of series: toxicity, cell-based.
Turning to `CCN(CC)S(=O)(=O)c1csc(C(=O)N2CCC(C(N)=O)CC2)c1`, the cytotoxicity at 70.5 h was -2.86%.
Then `Cn1cnc2c1CCN(Cc1csc(-c3ccccc3F)n1)C2`, with -3.29%.
The value for `O=C(CN1C(=O)CCC1=O)N1CCC(CSCc2ccco2)CC1` was -4.52%; that for `OC(CNc1cncc(OCc2ccccc2)n1)c1ccco1` (centres undefined) was -5.66%; that for `COc1ccc(C)cc1NC(=O)c1c(C)cn(C)c1CC(=O)O` was -11%.
The value for `N#Cc1cc2c(=O)n(CC(O)Cc3ccccc3)ccc2[nH]c1=O` (centres undefined) was -13.6%.
On to `Cc1occc1CNC(=O)C1CCCN1C(=O)C1CC1` (centres undefined), for which the cytotoxicity at 70.5 h is -6.76%.
Then `Cc1ccc(SCCN(C)C(=O)c2cn([C@H]3CC[C@@H](N)CC3)nn2)cc1`, with 16.5%.
The value for `O=c1cc(CN2CC[C@@]3(O)CCCC[C@H]3C2)c2cccc3c2n1CCC3` was -11.8%; that for `Cn1cc(CN2CCc3nc4sccc4c(=O)n3CC2)cn1` was -3.58%.
Then `COc1ncccc1NC(=O)c1cccc(C)n1`, with -7.22%; and `COc1cc(CC(=O)Nc2cccc(C(=O)N(C)C)n2)ccc1C`, with 46.5%.
Consider `CCOc1ccccc1N1CCN(CC2(O)CCCNC2)CC1` (centres undefined), for which the cytotoxicity at 70.5 h was -1.19%.
With `Cn1cc(C2(C)CN(C(=O)Nc3ccccc3F)CCO2)cn1` (centres undefined), the cytotoxicity at 70.5 h was -5.13%.
As to `COc1ncccc1NC(=O)N1CCC(c2ccc(O)cc2)CC1`, the cytotoxicity at 70.5 h was -3.42%.
The value for `Cc1nc(-c2ccc(C(=O)O)cc2)cc(C2CCN(C(C)C)C2)n1` (centres undefined) was -9.52%; that for `CCSCCNC(=O)C(c1cccc(F)c1)N(C)C` (centres undefined) was -6.8%; that for `CN1CCC2(CC1)CC(NC(=O)c1csnn1)c1ccccc1O2` (centres undefined) was -0.343%.
The value for `CC(C)(C)c1ncc(C(=O)NCCNC(=O)c2ccccc2)s1` was 1.17%; that for `CC1(C)CN(C(CNS(N)(=O)=O)c2ccc(Cl)cc2)CCO1` (centres undefined) was -3.76%.
`CCOC1COC2(CCN(Cc3cccc(C)n3)CC2)C1` (centres undefined): the cytotoxicity at 70.5 h stood at 0.953%.
With `CC(NC1(CNC(=O)OC(C)(C)C)CCOCC1)c1ccccc1` (centres undefined), the cytotoxicity at 70.5 h is -5.89%.
With `O=C(CCNCc1cccc2c1OCCCO2)NC1CCCC1`, the cytotoxicity at 70.5 h was found to be 6.45%.
With `Cn1c(=O)[nH]c(=O)c2c1nc1n2CC(c2ccc(Br)cc2)O1` (centres undefined), the cytotoxicity at 70.5 h was -3.88%.
Then `Cc1csc(C2CCCN(C(=O)c3c(C)nn4cccnc34)C2)n1` (centres undefined), with -4.25%; and `CCn1ccnc1CN1CCCN(C(=O)c2cc(C)nn2CC)CC1`, with 3.88%; and `CCc1cnc(NCc2ccccc2Cn2cccn2)nc1`, with 0.071%.
The value for `CN(C)CCN1CC2(CCC1=O)CCN(C(=O)c1ccn(C)n1)CC2` was -2.52%; that for `COCCCN1CCC(NC(=O)C(C)C)CC1` was 7.82%.
The value for `CCS(=O)(=O)N1CCN(C(=O)NC(C)C)CC2(CNC(=O)C2)C1` (centres undefined) was -26.5%; that for `CC(C)Cc1noc(CN(C)c2cc(C(C)C)nc3ccnn23)n1` was 5.41%.
For the molecule `Cc1ccccc1CC(=O)N1C[C@@H](O)[C@H](N2CCC(F)(F)CC2)C1`, the cytotoxicity at 70.5 h was -7.85%.
The value for `COc1cc2[nH]c(=O)c(CN3CCC[C@H]3CO)cc2c(OC)c1OC` was 14%; that for `CN(Cc1cn2c(n1)CN(C(=O)c1ccc[nH]1)CC2)Cc1ccco1` was 0.342%; that for `Cn1cc(CN2CCCN(C(=O)c3cc[nH]n3)CC2)cn1` was -9.96%.
For the molecule `O=C(NC1CC1)N1CCC2(CC1)CC(N1CCOCC1)c1ccccc12` (centres undefined), the cytotoxicity at 70.5 h is -10.8%.
Then `CCOC(=O)CN1CCC2(CC1)CC(=O)c1ccc(OC)cc1O2`, with 2.89%; and `CS(=O)(=O)N1CCc2[nH]cnc2C12CCN(C1CCOCC1)CC2`, with -6.93%; and `c1cncc(-c2noc(CNc3ncnc4c3CCNCC4)n2)c1`, with -5.95%.
The value for `CNS(=O)(=O)CC(=O)N1CCCc2cc(C(C)C)ccc21` was -98.6%; that for `CC(C)Oc1ccc(CNC(=O)C2CCS(=O)(=O)C2)cn1` (centres undefined) was 26.3%.
Then `CCOCCNS(=O)(=O)c1ccc2c3c1CCCN3C(=O)CO2`, with 33.6%; and `O=c1ccn(Cc2nc(-c3ccccc3F)cs2)c(=O)[nH]1`, with 0.45%; and `CCS(=O)(=O)N1CCC2(CC1)CC(CC(=O)NC1CC1)c1ccccc12` (centres undefined), with 17.6%.
Consider `CC1CCc2nc(NC(=O)CN(C)C(=O)c3ccco3)sc2C1` (centres undefined), for which the cytotoxicity at 70.5 h stood at 28.3%.
The value for `O=C(O)[C@]12CCCN(Cc3ccccn3)[C@@H]1CCN(c1cnccn1)C2` was -3.65%; that for `c1ccc(CCN2CCOC(Cn3cccn3)C2)nc1` (centres undefined) was -4.02%; that for `Cc1nnc(C2CCN(c3ccccc3)CC2)o1` was -9.47%.
Then `CC(C)N(C)Cc1cnc2n1CCN(CCc1ccccc1)C2`, with 4.09%; and `Cc1ncc2c(n1)CCCC2NC(=O)c1ccccc1C(=O)O` (centres undefined), with -13.5%; and `COc1ccc(CN(Cc2cc(C)no2)C2CC2)cc1`, with 0.248%.
`CN(C(=O)CNc1ccc(C#N)cc1)C1CCCCC1`: the cytotoxicity at 70.5 h was -3.87%.
`O=C(c1sccc1-n1cnnn1)N1CCCCC1`: the cytotoxicity at 70.5 h was -6.17%.
Then `CC(=O)N1CCCCC[C@@H]2[C@@H]1[C@H](c1cccc(F)c1)CN2C(C)=O`, with -10.6%; and `CC(=O)N1CCN(CCNS(=O)(=O)c2cc(F)cc(F)c2)CC1`, with -0.303%.
The value for `Cc1ncc2c(n1)CN(CC(=O)N1CCc3sccc3C1)CC2` was -1.15%; that for `O=C1NC2(CCNCC2)CC1c1ccccc1` (centres undefined) was 30.9%; that for `Cc1cn[nH]c1C1COCCN1Cc1ccsc1` (centres undefined) was -0.803%.
Then `CC1(C)CN(S(=O)(=O)N2CCCC2)CC1c1ccccc1` (centres undefined), with -6.08%.
For `O=C(CCS(=O)(=O)C1CCCC1)NCCc1cccc(O)c1`, the cytotoxicity at 70.5 h was 19.9%.
Then `O=C(c1cc2cc(F)ccc2[nH]1)N1CCC(Nc2ccc(F)cc2)CC1`, with -4.25%; and `CC(C)CN1CCNC(=O)C12CCN(C(=O)c1ccccn1)CC2`, with 9.35%.
For the molecule `CC(=O)Nc1cccc(OCCNC(=O)N(C)Cc2ccncc2)c1`, the cytotoxicity at 70.5 h came out at 20.7%.
As to `O=C(Nc1ccccn1)C1CCN(Cc2cc3c(cc2O)OCO3)CC1`, the cytotoxicity at 70.5 h amounted to 3.83%.
Then `COC(=O)c1cccc(C(=O)N2CCN(c3cc(Cl)ccc3C)CC2)n1`, with -2.22%; and `Cc1ccc(-c2nc(CN3CCn4c(C)nnc4C3)co2)cc1`, with -6.98%; and `COc1ccc(CN(C)[C@@H]2COC[C@H]2c2ccc(F)cc2)cc1`, with -10.1%.
Then `O=C(OCc1ccccc1)C1CCCN1Cc1nc(C2CC2)no1` (centres undefined), with -17.4%; and `O=C(NC1CC1)C1CN(C(=O)c2cnccn2)C1`, with -3.98%; and `O=C(Nc1ccnc(OC2CCOC2)c1)c1ccc(F)cc1Cl` (centres undefined), with 0.257%.
The value for `COCc1ccc(C(=O)N2CC[C@H](O)[C@@H](n3ccnc3)CC2)cc1` was -6.05%; that for `Cc1ccc(CC(NC(=O)CCS(C)(=O)=O)c2ccccn2)cc1` (centres undefined) was 0.0206%.
With `O=S(=O)(Nc1cnc(N2CCOCC2)nc1)c1cccc(F)c1`, the cytotoxicity at 70.5 h turned out to be 1.23%.
Consider `Cn1nnc2c1C(COCC1CC1)CN(C(=O)Cc1ccccn1)C2` (centres undefined), for which the cytotoxicity at 70.5 h is -2.19%.
The value for `O=C1CCCN1C1CCCN(CCn2cc(Cl)cn2)C1` (centres undefined) was -26.9%; that for `COCCN(C)C[C@@H]1CCC[C@@H]2CN(c3ncccn3)C[C@@H]21` was -0.79%; that for `Cc1ccc(NC(=O)Nc2cnc(N3CCN(C)CC3)nc2)c(Cl)c1` was 3.18%.
Then `Cc1cc(=O)[nH]c(-n2nc(C)c(CCC(=O)NCC(C)C)c2C)n1`, with -4.48%; and `NS(=O)(=O)c1ccc(NC(=O)CSc2ccc3c(c2)CCC3)cc1`, with -2.39%.
Then `COc1ccc(CN(C)[C@@H]2CN(C(=O)c3cccs3)C[C@H]2O)cc1`, with -6.31%; and `Cc1c[nH]c(CN(C)C(=O)c2ccc(CSc3nnc[nH]3)o2)n1`, with -1.05%.
As for `Cc1cn2c(n1)CCC(NC(=O)CCC1CC1)C2` (centres undefined), the cytotoxicity at 70.5 h is -3.09%.
The value for `NC(=O)C1CCN(C(=O)NCc2ccccc2-n2cccn2)C1` (centres undefined) was -4.02%.
The value for `CC(C)c1nn(C)c(N(C)C)c1CNC1CCCCNC1=O` (centres undefined) was -4.04%.
The value for `c1ccc(C[C@H]2CN(C3CCOCC3)CC[C@H]2OCC2CC2)cc1` was -8.83%; that for `CCc1noc(C)c1C(=O)N(C)Cc1ncc(C)c(OC)c1C` was -30.2%; that for `O=C1CC(N(C(=O)c2ccc(F)c(F)c2)C2CC2)C(=O)N1` (centres undefined) was -9.51%.
Consider `CC(=O)CSc1nc2c(cnn2CCO)c(=O)[nH]1`, for which the cytotoxicity at 70.5 h worked out at 21.3%.
With `Cc1ccc(N2CC[C@H]3CN(C(=O)c4ccn(C)n4)C[C@H]3C2)nn1`, the cytotoxicity at 70.5 h is -7.56%.
With `CN1CCN(C)C(c2nnc3ccc(C(=O)N4CCOCC4)cn23)C1` (centres undefined), the cytotoxicity at 70.5 h is -21.5%.
The value for `COC(=O)c1ccc2nc(CO[C@H]3CN(CC4CC4)C[C@H]3F)[nH]c2c1` was 1.07%; that for `CC(C)CCNC(=O)C(c1cccc(F)c1)N(C)C` (centres undefined) was 3.05%; that for `c1c[nH]c2nc(C3CCCNC3)nc-2c1` (centres undefined) was -13.7%.
On to `Cc1noc(C)c1CN1CCc2cnn(C)c2C1COCC1CC1` (centres undefined), for which the cytotoxicity at 70.5 h is -3.84%.
Then `COc1cnc(N2CCCC(c3ncc[nH]3)C2)nc1` (centres undefined), with -3.19%; and `Cc1cccc(CN2CCC3(CC2)CC(Oc2cccnc2)C3)n1`, with -0.691%; and `CN(C)c1ncccc1CNS(=O)(=O)c1cc(F)cc(F)c1`, with -6.43%.
Then `N#CCCSc1nnc(Cc2ccccc2F)o1`, with -3.12%.
Then `O=C(N[C@@H]1CCNC[C@H]1O)c1cc(F)cc(Cl)c1`, with -1.46%.
